Data: publication PMC7584652 (Nature Communications, 2020)

Tests used:
Conditions in all cases: labelled compound ([5′-α-32P]); 10 mM Tris pH 7.5, 100 mM NaCl, 5 mM MgCl2, room temperature
RbgA = biological target: T1, RbgA (Bacillus anthracis, UniProt A0A6L8PZ03)
T1 construct: gene GBAA_3976

PurR = PurR (Bacillus anthracis, UniProt A0AAC8NAH2)
GuaC = GuaC (Bacillus anthracis, UniProt Q81JJ9)
YjbM (SAS1) = biological target: T2, YjbM (SAS1) (Bacillus anthracis, UniProt A0A2P0HBB4)
T2 construct: gene BA_1212

With Nc1nc2c(ncn2[C@@H]2O[C@H](COP(=O)(O)OP(=O)(O)O)[C@@H](OP(=O)(O)OP(=O)(O)O)[C@H]2O)c(=O)[nH]1 [ppGpp] the “DRaCALA screen in E. coli overexpression lysate” value (“DRaCALA screen” below) (RbgA) was “ribosome and translation regulatory GTPases (HflX, Der, Obg, RbgA, TrmE, and Era)” and the “DRaCALA screen” value (PurR) was “purine nucleotide synthesis proteins (Hpt1, Xpt, Gmk, GuaC, PurA, and PurR)”.
In the case of Nc1nc2c(ncn2[C@@H]2O[C@H](COP(=O)(O)O)[C@@H](OP(=O)(O)OP(=O)(O)O)[C@H]2O)c(=O)[nH]1 [pGpp, guanosine-5′-monophosphate-3′-diphosphate], the “DRaCALA screen” value (GuaC) is reported as “including HprT, Xpt, Gmk, and GuaC, bound both pGpp and (p)ppGpp”.
With Nc1nc2c(ncn2[C@@H]2O[C@H](COP(=O)(O)OP(=O)(O)OP(=O)(O)O)[C@@H](OP(=O)(O)OP(=O)(O)O)[C@H]2O)c(=O)[nH]1 [pppGpp] the “DRaCALA screen” value (YjbM (SAS1)) was “several proteins bind to pppGpp but not ppGpp, including the small alarmone synthetase YjbM”.
